# Measurements taken from patent publication US20250082656A1, “DOSAGE REGIMENS FOR TREATMENT OF DENGUE INFECTION” (Atea Pharmaceuticals, Inc., priority 2022, published 2025).
# Like-named read-outs stand apart in the source and are kept apart here.
# Key:
# DENV2 MTase domain = DENV2 MTase domain (Dengue virus type 2, UniProt P14340); test: Thermal shift assay, DENV2 MTase domain; conditions: read-out: ΔTM
# [1] = In vivo formation of AT-9010 in PBMCs, monkeys; parameters: species or system cynomolgus monkeys; conditions: single oral Compound 2 equivalent to 55 mg/kg Compound 1, 12 h
# Procedure: Monkeys were given an oral dose of Compound 2 (AT-752) equivalent to Compound 1 (AT-281) at 55 mg/kg and blood collected at 12, 24 and 48 h. […] Mouse PBMCs were pooled from 3 animals per time point; Rat and monkey data expressed as mean+/−SD (n=2-3 per time point). […] The experimental procedure is provided in Example 15.
# Male non-naïve cynomolgus monkeys (Hainan Jingang Laboratory Animal Co. Ltd., China), at least 2 kg body weight, were individually housed during the study in stainless steel mesh cages, provided ad libitum access to RO water, fed twice daily (except on the day of dosing when they were fed once) with ˜60 g Certified Monkey Diet each feed (Beijing Vital Keao Feed Co., Ltd., Beijing, China) and given daily treats of fresh fruit. They (n=5) were administered a dose of Compound 2 (AT-752) at 300 mg/kg in 40% PEG400, 10% solutol HS15, 50% 100 mM citrate buffer, pH 4.5 (v/v) by oral gavage, and blood samples (˜0.5 mL) were collected at 1, 2, 4, 8, 12 and 24 h post dose. Plasma was separated at each time point for pharmacokinetics, and stored at −70° C. […]
# Pharmacokinetic measurements for FIGS. 11, 12, 13, 14, and 15 were analyzed using LC-MS/MS according to the protocol described herein. […]
# DENV1 RdRp domain = test: Thermal shift assay, DENV1 RdRp domain; conditions: RdRp domain DENV1, 100 μM compound
# DENV1 MTase domain = DENV1 MTase domain (Dengue virus type 1, UniProt P17763); test: Thermal shift assay, DENV1 MTase domain; conditions: read-out: ΔTM
# [2] = Pharmacokinetic study in SAD cohorts; assay type: in vivo, human; conditions: for AUCInf / Cmax / T1/2 / Tmax: human plasma; for CLR: human
# Procedure: Pharmacokinetic measurements for FIGS. 11, 12, 13, 14, and 15 were analyzed using LC-MS/MS according to the protocol described herein. Plasma samples were prepared for MS analysis by adding internal standards and extracting with 20 volumes chilled ACN. After vortex (800 rpm for 10 min) and centrifugation (4,000 rpm, 15 min, 4° C.), the supernatants (25 μL) were diluted with an equal volume of H2O, mixed and spun again. After adding internal standards, the PBMC samples (10^6 cells) were lyzed with 300 μL MeOH/H2O (70:30, v/v) and 40 mM dibutylammonium acetate (DBAA), mixed by vortex and centrifuged (12,000 rpm, 15 min, 4° C.). Aliquots of the supernatants (35 μL) were dried under nitrogen and reconstituted in H2O, then mixed and spun again. […] A binary nonlinear gradient with mobile phases A (0.1% formic acid in water) and B (0.1% formic acid in ACN) were used to elute samples at 0.8 mL/min, with a run time of 5 min. […] A binary nonlinear gradient with mobile phases A (0.001% NHr H2O, 0.18 mM DBAA in H2O) and B (10 mM N,N-dimethyl-hexylamine, 3 mM NH4OAc in ACN/H2O (50.50, v/v)) were used to elute samples at 0.5 mL/min, with a run time of 3 min. Standards in 50% MeOH were used for calibration. […] Internal standards (ISS) as described previously (Good et al., Preclinical evaluation of AT-527, a novel guanosine nucleotide prodrug with potent, pan-genotypic activity against hepatitis C virus. PLos One 15:e02271045) were used to correct for variations in recovery.
# Data analysis of the pharmacokinetic data generated according to Example 21 and presented in FIGS. 11, 12, 13, 14, and 15 was analyzed according to the procedure described herein. Plasma concentrations of Compound 1 (AT-281), Compound 3 (AT-551) and Compound 6 (AT-273) were subjected to non-compartmental pharmacokinetic analysis using Phoenix WinNonlin software (version 6.3 or above, Pharsight, Mountain View, CA). The linear/log trapezoidal rule was applied in obtaining the PK parameters.
# [3] = for AUCtau / Cmax / Tmax: steady-state, human plasma; for AUCtau / Cmax: mean±SD; for Tmax: median (minimum-maximum)
# [4] = single oral Compound 2 250 mg, fasting
# [5] = single oral Compound 2 500 mg, fasting
# [6] = single oral Compound 2 500 mg, fed
# [7] = single oral Compound 2 1000 mg, South/Southeast/East Asian origin
# [8] = single oral Compound 2 1000 mg, fasting
# [9] = single oral Compound 2 1500 mg, fasting
# DENV2 MTase domain, sequence (P14340 2493-2755 limits assumed): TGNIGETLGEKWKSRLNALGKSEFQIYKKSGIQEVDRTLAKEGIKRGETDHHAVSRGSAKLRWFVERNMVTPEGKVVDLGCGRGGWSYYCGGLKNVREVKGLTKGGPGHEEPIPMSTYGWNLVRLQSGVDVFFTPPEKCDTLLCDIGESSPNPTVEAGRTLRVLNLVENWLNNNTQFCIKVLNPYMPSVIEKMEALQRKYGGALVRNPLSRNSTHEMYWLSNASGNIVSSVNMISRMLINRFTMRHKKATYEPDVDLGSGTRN
# DENV1 MTase domain, sequence (P17763 2495-2756): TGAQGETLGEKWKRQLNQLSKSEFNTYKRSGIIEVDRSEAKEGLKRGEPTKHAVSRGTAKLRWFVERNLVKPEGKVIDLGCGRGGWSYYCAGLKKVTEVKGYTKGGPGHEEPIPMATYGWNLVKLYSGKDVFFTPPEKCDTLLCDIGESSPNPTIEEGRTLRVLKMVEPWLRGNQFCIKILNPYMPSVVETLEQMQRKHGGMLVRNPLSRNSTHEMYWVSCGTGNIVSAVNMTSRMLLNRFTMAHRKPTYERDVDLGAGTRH
smiles,measurement,setting,value
C[C@@]1(F)[C@H](O)[C@@H](COP(=O)(O)OP(=O)(O)OP(=O)(O)O)O[C@H]1n1cnc2c(=O)[nH]c(N)nc21 [Compound 5],ΔTm at 100 µM,DENV2 MTase domain,4 ± 0.1 °C
same,concentration of AT-9010 in PBMCs,[1],0.070±0.046 pmol/10^6 cells
same,ΔTM,DENV1 RdRp domain,5.6±0.1 °C
same,ΔTm at 100 µM,DENV1 MTase domain,3.8 ± 0.1 °C
"C[C@@]1(F)[C@H](O)[C@@H](CO)O[C@H]1n1cnc2c(=O)[nH]c(N)nc21 [Compound 6, 2′-fluoro-2′-C-methylguanosine]",dose proportionality of plasma exposure,[2]; dose range 250 to 1500 mg,slightly less than dose-proportional
same,Urine Elimination,[2]; following single oral administration of Compound 2 at 250 to 1500 mg,6.7-8.8%
same,AUCInf,[2]; [4],1440 ± 280 ng·h/mL
same,Cmax,[2]; [4],91 ± 19 ng/mL
same,T1/2,[2]; [4],19.1 ± 10.2 h
same,Tmax,[2]; [4],6.0 (3.0-6.0) h
same,AUCInf,[2]; [5],2390 ± 478 ng·h/mL
same,Cmax,[2]; [5],135 ± 25 ng/mL
same,T1/2,[2]; [5],13.9 ± 5.9 h
same,Tmax,[2]; [5],4.0 (3.0-8.0) h
same,AUCInf,[2]; [6],2990 ± 558 ng·h/mL
same,T1/2,[2]; [6],17.3 ± 11.0 h
same,Tmax,[2]; [6],6.0 (6.0-8.1) h
same,Cmax,"[2]; single oral Compound 2 500 mg, fed (high-fat/high-calorie meal)",175 ± 29 ng/mL
same,AUCInf,[2]; [7],3830 ± 519 ng·h/mL
same,T1/2,[2]; [7],16.3 ± 3.0 h
same,Tmax,[2]; [7],5.0 (3.1-6.0) h
same,AUCInf,[2]; [8],4350 ± 1520 ng·h/mL
same,Cmax,[2]; [8],241 ± 71 ng/mL
same,T1/2,[2]; [8],26.2 ± 12.2 h
same,Tmax,[2]; [8],4.1 (4.0-6.3) h
same,Cmax,"[2]; single oral Compound 2 1000 mg, patients of South/Southeast/East Asian origin",240 ± 46 ng/mL
same,AUCInf,[2]; [9],5460 ± 1190 ng·h/mL
same,Cmax,[2]; [9],283 ± 32 ng/mL
same,T1/2,[2]; [9],21.7 ± 6.2 h
same,Tmax,[2]; [9],6.0 (3.2-6.1) h
same,CLR,[2]; [4],15.8 ± 2.8 L/h
same,CLR,[2]; [5],16.8 ± 7.6 L/h
same,CLR,[2]; [6],13.4 ± 3.3 L/h
same,CLR,[2]; [7],18.7 ± 2.1 L/h
same,CLR,[2]; [8],17.1 ± 6.5 L/h
same,CLR,[2]; [9],19.5 ± 4.1 L/h
same,increase of plasma exposure on multiple dosing,[3]; BID,~60%
same,increase of plasma exposure on multiple dosing,[3]; QD,approximately 25%
same,increase of plasma exposure on multiple dosing,[3]; TID,~80%
same,AUCtau,[3]; Compound 2 750 mg BID,2680 ± 730 ng·h/mL
same,Cmax,[3]; Compound 2 750 mg BID,288 ± 58 ng/mL
same,Tmax,[3]; Compound 2 750 mg BID,3.5 (3.0-4.0) h
same,AUCtau,[3]; Compound 2 750 mg TID,2370 ± 743 ng·h/mL
same,Cmax,[3]; Compound 2 750 mg TID,330 ± 98 ng/mL
same,Tmax,[3]; Compound 2 750 mg TID,3.5 (3.0-6.0) h
same,AUCtau,[3]; Compound 2 1000 mg QD,3120 ± 694 ng·h/mL
same,Cmax,[3]; Compound 2 1000 mg QD,241 ± 56 ng/mL
same,Tmax,[3]; Compound 2 1000 mg QD,4.0 (3.0-4.0) h
